{"source": "patent US20170119742A1", "about": "“MEDICAMENT FOR PREVENTING AND/OR TREATING STRESS DISEASES” (ONO PHARMACEUTICAL CO., LTD., priority 2014, published 2017)", "target": "T1, brain TSPO (Homo sapiens, UniProt P30536)", "T1 construct": "from tissue; host or cells: living human brain (PET, healthy adults)", "T1 sequence (P30536 whole entry)": "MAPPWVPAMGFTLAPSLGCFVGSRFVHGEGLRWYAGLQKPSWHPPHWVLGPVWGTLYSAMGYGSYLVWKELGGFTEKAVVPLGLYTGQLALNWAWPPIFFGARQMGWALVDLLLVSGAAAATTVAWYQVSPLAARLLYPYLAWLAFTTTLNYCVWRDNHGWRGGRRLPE", "assay": "Prediction of brain TSPO occupancy in steady state, once daily in humans (Biological example 8)", "details": "for ROmax (%) Predicted 5 percentile / ROmax (%) Predicted 95 percentile / ROmax (%) Predicted median: maximum brain TSPO occupancy; for ROmin (%) Predicted 5 percentile / ROmin (%) Predicted 95 percentile / ROmin (%) Predicted median: minimum brain TSPO occupancy", "description": "Further, a transition in the plasma concentration of the compound of the present invention, in a steady state when administered once daily, was predicted. And brain TSPO occupancy was predicted by using the relationship between plasma concentration and brain TSPO occupancy that shown in FIG. 5."}
{"compound": "COc1cc(Cl)ccc1[C@H]1c2[nH]c3cccc(F)c3c2C2(CC2)CN1C(C)=O", "note": "[the compound of the present invention, (1S)-2-acetyl-1-(4-chloro-2-methoxyphenyl)-5-fluoro-1,2,3,9-tetrahydrospiro[β-carboline-4,1′-cyclopropane]]", "values": [{"measurement": "ROmax (%) Predicted 5 percentile", "setting": "dose 1 mg", "result": 28.3, "unit": "%"}, {"measurement": "ROmax (%) Predicted 95 percentile", "setting": "dose 1 mg", "result": 48.8, "unit": "%"}, {"measurement": "ROmax (%) Predicted median", "setting": "dose 1 mg", "result": 38.4, "unit": "%"}, {"measurement": "ROmin (%) Predicted 5 percentile", "setting": "dose 1 mg", "result": 11.5, "unit": "%"}, {"measurement": "ROmin (%) Predicted 95 percentile", "setting": "dose 1 mg", "result": 30.5, "unit": "%"}, {"measurement": "ROmin (%) Predicted median", "setting": "dose 1 mg", "result": 19.4, "unit": "%"}, {"measurement": "ROmax (%) Predicted 5 percentile", "setting": "dose 5 mg", "result": 60.5, "unit": "%"}, {"measurement": "ROmax (%) Predicted 95 percentile", "setting": "dose 5 mg", "result": 84.6, "unit": "%"}, {"measurement": "ROmax (%) Predicted median", "setting": "dose 5 mg", "result": 72.0, "unit": "%"}, {"measurement": "ROmin (%) Predicted 5 percentile", "setting": "dose 5 mg", "result": 38.0, "unit": "%"}, {"measurement": "ROmin (%) Predicted 95 percentile", "setting": "dose 5 mg", "result": 67.7, "unit": "%"}, {"measurement": "ROmin (%) Predicted median", "setting": "dose 5 mg", "result": 52.5, "unit": "%"}, {"measurement": "ROmax (%) Predicted 5 percentile", "setting": "dose 10 mg", "result": 69.6, "unit": "%"}, {"measurement": "ROmax (%) Predicted 95 percentile", "setting": "dose 10 mg", "result": 94.2, "unit": "%"}, {"measurement": "ROmax (%) Predicted median", "setting": "dose 10 mg", "result": 80.9, "unit": "%"}, {"measurement": "ROmin (%) Predicted 5 percentile", "setting": "dose 10 mg", "result": 52.8, "unit": "%"}, {"measurement": "ROmin (%) Predicted 95 percentile", "setting": "dose 10 mg", "result": 81.0, "unit": "%"}, {"measurement": "ROmin (%) Predicted median", "setting": "dose 10 mg", "result": 67.1, "unit": "%"}, {"measurement": "ROmax (%) Predicted 5 percentile", "setting": "dose 20 mg", "result": 75.1, "unit": "%"}, {"measurement": "ROmax (%) Predicted 95 percentile", "setting": "dose 20 mg", "result": 100.0, "unit": "%"}, {"measurement": "ROmax (%) Predicted median", "setting": "dose 20 mg", "result": 86.4, "unit": "%"}, {"measurement": "ROmin (%) Predicted 5 percentile", "setting": "dose 20 mg", "result": 64.6, "unit": "%"}, {"measurement": "ROmin (%) Predicted 95 percentile", "setting": "dose 20 mg", "result": 91.5, "unit": "%"}, {"measurement": "ROmin (%) Predicted median", "setting": "dose 20 mg", "result": 77.6, "unit": "%"}, {"measurement": "ROmax (%) Predicted 5 percentile", "setting": "dose 30 mg", "result": 77.0, "unit": "%"}, {"measurement": "ROmax (%) Predicted 95 percentile", "setting": "dose 30 mg", "result": 102.6, "unit": "%"}, {"measurement": "ROmax (%) Predicted median", "setting": "dose 30 mg", "result": 88.5, "unit": "%"}, {"measurement": "ROmin (%) Predicted 5 percentile", "setting": "dose 30 mg", "result": 69.7, "unit": "%"}, {"measurement": "ROmin (%) Predicted 95 percentile", "setting": "dose 30 mg", "result": 94.9, "unit": "%"}, {"measurement": "ROmin (%) Predicted median", "setting": "dose 30 mg", "result": 81.8, "unit": "%"}, {"measurement": "ROmax (%) Predicted 5 percentile", "setting": "dose 50 mg", "result": 78.7, "unit": "%"}, {"measurement": "ROmax (%) Predicted 95 percentile", "setting": "dose 50 mg", "result": 104.0, "unit": "%"}, {"measurement": "ROmax (%) Predicted median", "setting": "dose 50 mg", "result": 90.2, "unit": "%"}, {"measurement": "ROmin (%) Predicted 5 percentile", "setting": "dose 50 mg", "result": 74.1, "unit": "%"}, {"measurement": "ROmin (%) Predicted 95 percentile", "setting": "dose 50 mg", "result": 99.0, "unit": "%"}, {"measurement": "ROmin (%) Predicted median", "setting": "dose 50 mg", "result": 85.8, "unit": "%"}, {"measurement": "ROmax (%) Predicted 5 percentile", "setting": "dose 60 mg", "result": 78.8, "unit": "%"}, {"measurement": "ROmax (%) Predicted 95 percentile", "setting": "dose 60 mg", "result": 104.2, "unit": "%"}, {"measurement": "ROmax (%) Predicted median", "setting": "dose 60 mg", "result": 91.0, "unit": "%"}, {"measurement": "ROmin (%) Predicted 5 percentile", "setting": "dose 60 mg", "result": 75.0, "unit": "%"}, {"measurement": "ROmin (%) Predicted 95 percentile", "setting": "dose 60 mg", "result": 100.1, "unit": "%"}, {"measurement": "ROmin (%) Predicted median", "setting": "dose 60 mg", "result": 87.0, "unit": "%"}, {"measurement": "ROmax (%) Predicted 5 percentile", "setting": "dose 70 mg", "result": 79.4, "unit": "%"}, {"measurement": "ROmax (%) Predicted 95 percentile", "setting": "dose 70 mg", "result": 104.8, "unit": "%"}, {"measurement": "ROmax (%) Predicted median", "setting": "dose 70 mg", "result": 91.2, "unit": "%"}, {"measurement": "ROmin (%) Predicted 5 percentile", "setting": "dose 70 mg", "result": 76.4, "unit": "%"}, {"measurement": "ROmin (%) Predicted 95 percentile", "setting": "dose 70 mg", "result": 101.1, "unit": "%"}, {"measurement": "ROmin (%) Predicted median", "setting": "dose 70 mg", "result": 88.2, "unit": "%"}, {"measurement": "ROmax (%) Predicted 5 percentile", "setting": "dose 100 mg", "result": 80.1, "unit": "%"}, {"measurement": "ROmax (%) Predicted 95 percentile", "setting": "dose 100 mg", "result": 106.1, "unit": "%"}, {"measurement": "ROmax (%) Predicted median", "setting": "dose 100 mg", "result": 92.1, "unit": "%"}, {"measurement": "ROmin (%) Predicted 5 percentile", "setting": "dose 100 mg", "result": 77.6, "unit": "%"}, {"measurement": "ROmin (%) Predicted 95 percentile", "setting": "dose 100 mg", "result": 103.1, "unit": "%"}, {"measurement": "ROmin (%) Predicted median", "setting": "dose 100 mg", "result": 90.0, "unit": "%"}]}
